Laboratory results published in patent US20200345725A1, “Methods and Compositions for Treating Cancer” (Omeros Corporation, priority 2019, published 2020).

Legend:
Type in all cases: cell-based
GPR174 [1] = biological target: T1, GPR174 (Homo sapiens, UniProt Q9BXC1); test: GPR174 signaling assays with adenosine receptor inhibitors (data not shown); design: host or cells: HEK293 or CHO cell lines (ATCC)
Source text: It should be noted that the A2aR inhibitors tested belong to four distinct chemical classes and that none of them affects GPR174 signaling when tested in signaling assays (data not shown).
Target sequence in this assay (Q9BXC1 whole entry, species assumed): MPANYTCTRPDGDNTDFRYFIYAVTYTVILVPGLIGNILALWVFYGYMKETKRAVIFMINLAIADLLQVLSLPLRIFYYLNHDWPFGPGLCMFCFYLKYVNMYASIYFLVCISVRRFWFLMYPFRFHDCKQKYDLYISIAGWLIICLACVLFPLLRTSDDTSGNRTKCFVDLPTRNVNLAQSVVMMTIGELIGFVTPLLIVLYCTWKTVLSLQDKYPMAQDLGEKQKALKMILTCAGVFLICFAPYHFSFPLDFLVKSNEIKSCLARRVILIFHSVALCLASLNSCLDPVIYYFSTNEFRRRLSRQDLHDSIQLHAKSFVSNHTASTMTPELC

purified human T cells = test: Suppression of cytokine production from purified human T cells by PS liposomes and NECA (MesoScale Discovery); settings: purified human CD3+ T cells, 24 hours, PS liposomes 1 μM, NECA
Experimental: Purified human T cells (untouched total T cells, Astarte Biologies, Inc., CD3+ T cells in FIGS. 72A and 72B and CD8+ T cells in FIG. 72C) were stimulated in quadruplicate at 100,000 cells per well in 96-well flat bottom plates and X-vivo 15 media with the following reagents:
ImmunoCult™ Human CD3/CD28 T Cell Activator (StemCell) (1:50 dilution)
PS liposomes (1 μM) or media control
Adenosine receptor agonist (NECA, 0.1 μM or 0.05 μM) or media control
A combination of both reagents.
After 24 hours of culture (44 hours for the results shown in FIG. 72C), culture media was analyzed for cytokines (MesoScale Discovery).

human PBMC = test: IL-2 in supernatants of human PBMC stimulated with anti-CD3 and anti-CD28, ELISA; settings: human PBMC donor 8, 24 hours post-stimulation; compound 10 1 μM, ZM-241385 0.1 μM, APCP 10 μM; FIG. 71
Experimental: Human PBMCs, obtained from a human volunteer donor (donor 8), were dispensed in X-vivo15 media (Lonza) supplemented with Glutamax, penicillin and streptomycin, at density of 1×10^6 cells/well in a 96-well flat-bottom plate and were cultured in quadruplicate for 3 hours in the presence of:
GPR174 inhibitory compound 10 (1 μM);
CD73 inhibitory compound, adenosine 5′-(a,p-methylene)diphosphate sodium salt (APCP, Tocris, 10 μM);
Combinations of the above agents;
After which 1 μg/mL anti-CD3 antibody (UCHT1) and 0.1 μg/mL anti-CD28 antibody (CD28.2) were added to activate T cells. Supernatants from these cells were collected at 24 hours post-stimulation and the levels of IL-2 were determined by ELISA.

mouse splenocytes = test: IL-2 levels in supernatants of cultured mouse splenocytes (WT or GPR174-KO) stimulated with anti-CD3 and anti-CD28, MSD platform; settings: 2 days
Experimental: To make single cell suspensions from mouse splenocytes, spleens were cut into 1-2 mm^3 pieces with a razor blade and incubated at 37° C. with 10 μg/mL DNase and 1 mg/mL Collagenase D with agitation for 90 min. Spleen fragments and cells were then pressed through a nylon screen, and the resulting cell suspension was washed. In 96-well flat-bottom plates, splenocytes were cultured in quadruplicate with the following conditions for 2 days, after which supernatants were tested for cytokine levels with the MSD platform.
Anti-CD3 (clone 2C11; 0.1 μg/mL)
GPR174 inhibitor (compound 10, 1 μM or 0.3 μM, or DMSO vehicle control)
GPR174 inhibitor (compound 6, 0.3 μM, or DMSO vehicle control)
Adenosine receptor agonist (NECA, 0.1 μM)

ADBR2 [2] = biological target: T2, ADBR2 (Homo sapiens, UniProt P07550); test: GloSensor cAMP assay with ADBR2
T2 construct: host or cells: HEK293 or CHO cell lines (ATCC)

GPR174 [3] = biological target: T1, GPR174; test: GloSensor cAMP assay with GPR174, with or without agonist LysoPS; design: host or cells: HEK293 or CHO cell lines (ATCC)
Experimental: In order to confirm that GPR174 interacting compound 4 is an antagonist of GPR174-mediated Gs signaling, a GloSensor assay was carried out with increasing concentrations of compound 4 in the presence or absence of a fixed concentration (1 μM) of the GPR174 agonist LysoPS as follows.
The DNA/lipofectamine 2000 mix (3000 μL) was incubated at room temperature for 30 minutes and then added into a 10 cm culture dish (Corning, NY) containing 70-90% confluent cultured cells, typically HEK293 or CHO cell lines (ATCC, VA), in 15 mL of media. […] Media (26 mL) was added to the detached cells and 100 μL of transfected cells were transferred to each well on a 96-well plate. The cells were further incubated at 37° C. overnight. The following day, the media were removed and 100 μl of equilibration media (Promega) was added to each well to the manufacturer's directions. The cells were then incubated at room temperature for 2 hours and the cell plates were pre-read with a SpectraMax L (Molecular Devices, CA). After the pre-read, increasing concentrations of each compound in DMSO (1.0 μl) was added to the cells. The cell plates containing the compound were read immediately after the compound was added and at various times up to 30 minutes after the addition of the compound with a SpectraMax L (Molecular Devices, CA). Data were analyzed with either Excel (Microsoft, WA) or Prism 4.03 (GraphPad, CA).
Target sequence in this assay (Q9BXC1 whole entry, species assumed): as above

ADBR2 [4] = biological target: T2, ADBR2; test: CRE-Luc reporter assay with control receptor ADBR2
Experimental: The DNA/lipofectamine 2000 mix (3000 μL) was incubated at room temperature for 30 minutes and then added into a 10 cm culture dish (Corning, NY) containing 70-90% confluent cultured cells, (HEK293 or CHO cell lines (ATCC, VA)), in 15 mL of media. […] The cells were further incubated at 37° C. for various times. The media were removed and the cells lysed.
Compounds were tested in the reporter system with increasing concentrations of GPR174-interacting compounds.
The DNA/lipofectamine 2000 mix (3000 μL) was incubated at room temperature for 30 minutes and then added into a 10 cm culture dish (Corning, NY) containing 70-90% confluent cultured cells, typically HEK293 or CHO cell lines (ATCC, VA), in 15 mL of media. […] Media (26 mL) were added to the detached cells and 120 μL of transfected cells were transferred to each well on a 96-well plate. Increasing concentration of each compound in DMSO (1.2 μl) was added to the cells after plating into the 96-well plate. The cells were further incubated at 37° C. for various times. The media were removed, and the cells lysed.
ADBR2 is a GPCR, like GPR174, that activates the Gs signaling pathway.

CHRM1 = test: CRA against CHRM1
Source text: (§1) The inventors used a CRA similar to that described in U.S. Pat. No. 7,309,576 and O'Dowd et al., J. Biomol. Screen. 12:175-85, 2007 to identify compounds that are capable of interacting with GPR174 using a library of approximately 370,000 chemical entities. Briefly described, the CRA assay described in U.S. Pat. No. 7,309,576 involves artificially inserting a NLS into the dopamine D1 receptor (DRD1), which allows the receptor to traffic from the cell membrane to the cell interior, and that the binding of antagonists to the receptor retained the receptor at the cell surface, while removal of the ligand allowed the receptor to continue to internalize from the cell surface. Both antagonists and agonists that selectively bound the receptor retained the receptor on the plasma membrane. GPR174 constructs were generated for use in a CRA-based compound screening assay. From this screen, the inventors initially identified compounds of formula I-VI, as described herein and included in Table 1.
The inventors also sought to validate that the compounds identified using the CRA are modulatory compounds. To this end, the above-described CRA was used to screen a library for compounds that interact with three control non-orphan receptors, and the results of this screen were compared to the results of screening the same library for compound that were identified using a Fluorometric Imaging Plate Reader (FLIPR) assay, a conventional technique commonly used to identify compounds interacting with non-orphan GPCRs signaling through Ca^++. Three non-orphan GPCRs—Muscarinic acetylcholine receptor M1 (CHRM1), Adrenergic receptor alpha 1a (ADRA1a), and Neuropeptide S receptor (NPSR)—were screened against a 10,000-compound GPCR-focused library. Thirty interacting compound “hits” were identified using the CRA, and eighty-one hits were identified using the FLIPR for the CHRM1 receptor; 9 CRA hits and 29 FLIPR hits for the NPS receptor were identified; and 110 CRA hits and 110 FLIPR hits for ADRA1a.
In addition, the CRA can also provide the relative potencies of compounds against the target receptor.

GPR174 [5] = biological target: T1, GPR174; test: CRE-Luc reporter Gs signaling assay with GPR174; design: host or cells: HEK293 or CHO cell lines (ATCC); settings: for Human GPR174 CRE Activity: nature of the compound (IA, antagonist, NM): pCRE-Luc reporter
Target sequence in this assay (Q9BXC1 whole entry): as the sequence (Q9BXC1 whole entry, species assumed) above

GPR174 [6] = biological target: T1, GPR174; test: Cellular redistribution assay (CRA) for GPR174
Source text: One method for identifying compounds capable of modulating a receptor is using a cellular redistribution assay (“CRA”). Exemplary CRA methods are found in U.S. Pat. No. 7,309,576 issued to O'Dowd et al. and in O'Dowd et al., J. Biomol. Screen. 12:175-85,2007. […] Incorporation of the NLS alters the cellular localization of the GPCR, such that the majority of the NLS-modified receptor is present in the cell interior. An NLS-modified GPCR, when interacting with a functionally active compound, is mostly localized on the cell surface. Thus, it becomes possible to identify receptor modulators without knowledge of the endogenous ligand or a surrogate ligand.
The inventors have identified a number of compounds that inhibit GPR174 using a CRA assay similar to that described in U.S. Pat. No. 7,309,576 and in O'Dowd et al., J. Biomol. Screen. 12:175-85, 2007. These compounds are described in detail below.
as §1
Target sequence in this assay (Q9BXC1 1-292 limits assumed): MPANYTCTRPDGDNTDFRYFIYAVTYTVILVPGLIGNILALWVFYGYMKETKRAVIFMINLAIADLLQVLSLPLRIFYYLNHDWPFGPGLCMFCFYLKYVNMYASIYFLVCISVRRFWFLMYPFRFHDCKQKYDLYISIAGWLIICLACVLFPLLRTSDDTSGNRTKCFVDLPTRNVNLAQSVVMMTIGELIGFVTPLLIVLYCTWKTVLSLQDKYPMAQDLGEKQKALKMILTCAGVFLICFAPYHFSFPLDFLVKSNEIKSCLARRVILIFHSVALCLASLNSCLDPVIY

GPR174-v38 = GPR174-v38 (Homo sapiens, UniProt Q9BXC1); test: GloSensor Gs signaling by phospholipids, HEK293 cells expressing mutant GPR174-v38; settings: 10 nM to 10,000 nM
Experimental: (§2) Unilamellar liposomes of phosphatidylserine (PS) and other phospholipids were prepared by hydration in PBS and extrusion at 50-54° C. through a 0.1 micron filter using a mini-extruder (Avanti). Lysophosphatidylserine (Lyso-PS) is soluble.
(§3) HEK293 cells were grown in 6-well plates and transfected using Lipofectamine 2000 (Thermo Fisher Scientific) with 300 ng/well of cAMP biosensor expressing plasmid pGlo22F (Promega) and 2 ng of a plasmid expressing wild-type GPR174 or 2 ng of a plasmid expressing a GPR174 mutant with lowered basal activity, referred to as “GPR174-v38.”
(§4) 5-6 hours after transfection, the cells were trypsinized and plated at a density of 5000 cells/well into 96-well plates and incubated overnight. The next day, the culture medium was replaced with 100 μL/well of serum free medium X-vivo15 (Lonza) with 2% GloSensor Assay reagent (Promega). The plates were incubated for 1 hour at room temperature and measured in a luminometer to obtain the pre-compound values. […] The plates were measured in a luminometer to obtain the post-compound addition measurement. The ratio of post-compound addition to pre-compound addition measurements (i.e., the extent of Glosensor signal induction by an agonist) was determined.

wild-type GPR174 = biological target: T3, wild-type GPR174 (Homo sapiens, UniProt Q9BXC1); test: GloSensor Gs signaling by phospholipids, HEK293 cells expressing wild-type GPR174; settings: 10 nM to 10,000 nM
T3 construct: expressed in transfected cells; host or cells: HEK293
Experimental: as §2, §3
as §4, with “determined. […]” for “determined.”

T3 sequence (Q9BXC1 whole entry): as the sequence (Q9BXC1 whole entry, species assumed) above

Molecule: CCCn1c(=O)c2[nH]c(-c3ccc(OCC(=O)Nc4ccc(C#N)cc4)cc3)nc2n(CCC)c1=O [MRS-1754]
- effect on GPR174 signaling (GPR174 [1]): did not affect GPR174 signaling

Molecule: CCNC(=O)[C@H]1O[C@@H](n2cnc3c(N)ncnc32)[C@H](O)[C@@H]1O [NECA]
- IL-2 FC vs Media (purified human T cells; FIG. 72A): 0.42 fold change
- IFN-γ FC vs Media (purified human T cells; FIG. 72B): 0.31 fold change

Molecule: Nc1nc(NCCc2ccc(O)cc2)nc2nc(-c3ccco3)nn12 [ZM-241385]
- increase of IL-2 levels (human PBMC): 1.4 fold
- increase of IL-2 levels (mouse splenocytes; GPR174-KO splenocytes, no NECA, ZM-241385 0.1 μM, FIG. 68B): 1.3 fold
- increase of IL-2 levels (mouse splenocytes; WT splenocytes, NECA 0.1 μM, compounds 10, 6 0.3 μM, ZM-241385 0.2 μM, FIG. 69): 2 fold
- increase of IL-2 levels (mouse splenocytes; WT splenocytes, no NECA, compound 10 1 μM, ZM-241385 0.1 μM, FIG. 68A): 1.3 fold

Molecule: CCCC(=O)c1ccc(N2CCN(S(=O)(=O)c3ccc(C)cc3)CC2)c(F)c1 [compound 4]
- Gs signaling in the presence of ADBR (GloSensor, FIG. 21B) (ADBR2 [2]): neither compound 4 nor LysoPS modulate Gs signaling
- competition with the GPR174 agonist LysoPS (GloSensor, FIG. 21A) (GPR174 [3]; LysoPS fixed at 1 μM): does compete
- Gs pathway in the presence of GPR174 (GloSensor, FIG. 21A) (GPR174 [3]; compound alone): does not modulate
- Gs pathway in the presence of ADBR2 (CRE-Luc reporter) (ADBR2 [4]): did not modulate
- activity against CHRM1 in the CRA (FIG. 5B) (CHRM1): do not show any activity
- Gs pathway in the presence of GPR174 (CRE-Luc reporter) (GPR174 [5]; increasing concentrations of compound): did not modulate
- Human GPR174 CRE Activity: nature of the compound (IA, antagonist, NM) (GPR174 [5]): GPR174 antagonist
- Human GPR174 CRE Activity: nature of the compound (IA, antagonist, NM) (GPR174 [5]; listed as Compound 4): GPR174 antagonist
- dose-response curve against GPR174 in the CRA (FIG. 5A) (GPR174 [6]): show a dose-response curve

Molecule: lysophosphatidylserine [LysoPS]
- Gs signaling in the presence of ADBR (GloSensor, FIG. 21B) (ADBR2 [2]): neither compound 4 nor LysoPS modulate Gs signaling
- GPR174 Gs signaling, mutant GPR174-v38 (FIG. 45B) (GPR174-v38): stimulate GPR174 Gs signaling in a concentration-dependent manner
- GPR174 Gs signaling, wild-type GPR174 (FIG. 45A) (wild-type GPR174): stimulate GPR174 Gs signaling in a concentration-dependent manner
